Measurements reported in paper PMC7815786, “Antimicrobial effects of syndiotactic polypeptides” (Scientific Reports, 2021).
Converted amounts (≈) assume the structure as drawn. Where a SMILES comes first, the peptide text is derived from it. [ ]: non-standard residue; d: D form.

Columns and labels:
[1] = test system: Gentamicin resistant MRSA (ATCC 33592); type: cell-based, Staphylococcus aureus
Method: (§1) The antibacterial activity was performed using micro-dilution method as per Clinical and Laboratory Standards Institute (CLSI). Gentamicin resistant MRSA (ATCC 33592), Mycobacterium smegmatis (ATCC607) were procured from ATCC, Escherichia coli MG1655 has been sourced fromChaudhary laboratory, BSBE, IIT Guwahati. The clinical isolates was provided by Dr. Chimanjita Phukan (Guwahati Medical College Hospital, Bhangagarh, Guwahati, Assam). The media broth was procured from Himedia Laboratories. Overnight culture of Gentamicin resistant MRSA (ATCC 33592), Escherichia coli MG1655, clinical isolates [(S. aureus (drug resistant) and E. coli (multidrug resistant) supplementary table 2] were diluted to 10^6 CFU/mL in Nutrient Broth (NB). 100 µL of broth containing 50 µL of bacterial suspension and test peptides at various concentrations were incubated for 12 to 16 h at 37 °C[33]. Similarly, Mycobacterium smegmatis (ATCC607) was diluted to 10^6 CFU/mL in M7H9 media. 50 µL of bacterial suspension was treated with 50 µL peptides at various concentrations. The peptide bacterial suspension was incubated for 72 h at 37 °C. The antimicrobial potencies of the peptides were evaluated at 600 nm by a comparative assessment with untreated bacterial suspension (negative control). The Minimal Inhibitory Concentration (MIC) was reported at the lowest concentration, where no growth was observed, as per standard protocols. The serum sensitivity experiment was similar to antibacterial activity. In this experiment, 50% serum containing media was used, instead of media alone. The experiment with human serum was performed as per IHEC (Institute Human Ethics Committee) guidelines, at IIT Guwahati hospital, from healthy adult donors. All the protocols were approved by the IHEC, and performed, with the informed consent and written approval from the subjects.

Escherichia coli MG1655 = type: cell-based
Method: as §1

[2] = test system: Mycobacterium smegmatis (ATCC607); type: cell-based; settings: ATCC607, 72 h
Method: as §1

[3] = test system: clinical isolate of multi-drug resistant Escherichia coli (sample 28162); type: cell-based; settings: clinical isolate of multi-drug resistant (sample 28162)
Method: as §1
(§2) Primary screening of the antibacterial activity of the peptides was performed against clinical isolates obtained from a tertiary referral hospital (Details in supplementary information, section 3). Resistant Staphylococcus aureus (Gram-positive) and E.coli (Gram negative) are the two clinical bacterial strains assayed in this study. The results of the antimicrobial assay are summarized in Fig. 4 and supplementary Table 2.
(§3) Supplementary Table 2. The in-vitro antimicrobial activity of designed peptides against clinical isolates of multi-drug resistant Staphylococcus aureus and Escherichia coli. The concentration is expressed in µM.

[4] = test system: clinical isolate of drug resistant Staphylococcus aureus (sample 28401); type: cell-based; settings: clinical isolate of drug resistant (sample 28401)
Method: as §1, §2, §3

[5] = test system: bacterial species tested (not specified); type: cell-based; settings: wet lab experiments, bacterial species not given
Method: as §1
Several modes of action of AMP’s have been proposed, and the contentious issue primarily is whether the peptide is targeting the membrane, followed by its disruption or it penetrates the membrane invading cytoplasm, affecting cellular metabolism. […]

MIC E.coli clinical isolate [3] [µM] | MIC S. aureus clinical isolate [4] [µM] | SMILES | MIC Gentamicin resistant MRSA, Medium [1] [µM] | MIC E. coli, Medium (Escherichia coli MG1655) [µM] | MIC M.smegmatis, Medium [2] [µM] | MIC values (summary in discussion) [5] [µM]
25 (≈ 47.9 µg/mL) | 50 (≈ 95.8 µg/mL) | CC(C)[C@@H](NC(=O)[C@H](Cc1c[nH]c2ccccc12)NC(=O)[C@H](NC(=O)[C@H](CCCCN)NC(=O)[C@@H](CCCCN)NC(=O)[C@H](CCCCN)NC(=O)[C@@H](Cc1c[nH]c2ccccc12)NC(=O)[C@@H](N)Cc1c[nH]c2ccccc12)C(C)C)C(=O)N[C@@H](CCCCN)C(=O)N[C@H](CCCCN)C(=O)N[C@@H](CCCCN)C(=O)N[C@H](Cc1c[nH]c2ccccc12)C(=O)N[C@@H](Cc1c[nH]c2ccccc12)C(N)=O [AS04] (H-W[dW]K[dK]K[dV]W[dV]K[dK]K[dW]W-NH2) | 1.6 (≈ 3.06 µg/mL) | 3.13 (≈ 6 µg/mL) | 6.25 (≈ 12 µg/mL) | 
 |  | CC(C)C[C@@H](NC(=O)[C@H](Cc1c[nH]c2ccccc12)NC(=O)[C@@H](CC(C)C)NC(=O)[C@@H](N)Cc1c[nH]c2ccccc12)C(=O)N[C@@H](Cc1c[nH]c2ccccc12)C(=O)N[C@H](CC(C)C)C(=O)N[C@@H](Cc1c[nH]c2ccccc12)C(=O)N[C@@H](C(=O)N[C@@H](CCCCN)C(=O)N[C@H](CCCCN)C(=O)N[C@@H](C)C(=O)N[C@H](CCCCN)C(=O)N[C@@H](C)C(=O)N[C@H](CCCCN)C(=O)N[C@@H](CCCCN)C(N)=O)C(C)C [AS08] (H-W[dL]W[dL]W[dL]W[dV]K[dK]A[dK]A[dK]K-NH2) | 6.25 (≈ 12.4 µg/mL) | 6.25 (≈ 12.4 µg/mL) | 6.25 (≈ 12.4 µg/mL) | 1 to 10
 |  | CC(C)[C@H](NC(=O)[C@@H](Cc1c[nH]c2ccccc12)NC(=O)[C@H](Cc1c[nH]c2ccccc12)NC(=O)[C@@H](CCCCN)NC(=O)[C@H](CCCNC(=N)N)NC(=O)[C@@H](CCCCN)NC(=O)[C@@H](NC(=O)[C@H](NC(=O)[C@H](Cc1c[nH]c2ccccc12)NC(=O)[C@@H](Cc1c[nH]c2ccccc12)NC(=O)[C@H](CCCNC(=N)N)NC(=O)[C@@H](CCCCN)NC(=O)[C@@H](N)CCCNC(=N)N)C(C)C)C(C)C)C(N)=O [AS01] (H-R[dK]R[dW]W[dV]V[dK]R[dK]W[dW]V-NH2) | 6.25 (≈ 12 µg/mL) | 3.13 (≈ 5.99 µg/mL) | 6.25 (≈ 12 µg/mL) | 
50 (≈ 97.7 µg/mL) | 50 (≈ 97.7 µg/mL) | CC(C)C[C@H](NC(=O)[C@@H](Cc1c[nH]c2ccccc12)NC(=O)[C@H](CC(C)C)NC(=O)[C@@H](Cc1c[nH]c2ccccc12)NC(=O)[C@H](CCCNC(=N)N)NC(=O)[C@@H](CCCCN)NC(=O)[C@@H](N)CCCNC(=N)N)C(=O)N[C@H](CCCCN)C(=O)N[C@@H](CCCNC(=N)N)C(=O)N[C@H](CCCCN)C(=O)N[C@@H](Cc1c[nH]c2ccccc12)C(=O)N[C@H](CC(C)C)C(=O)N[C@@H](Cc1c[nH]c2ccccc12)C(N)=O [AS02] (H-R[dK]R[dW]L[dW]L[dK]R[dK]W[dL]W-NH2) | 3.13 (≈ 6.12 µg/mL) | 6.25 (≈ 12.2 µg/mL) | 3.13 (≈ 6.12 µg/mL) | 
 |  | CC(C)[C@H](NC(=O)[C@H](NC(=O)[C@H](CCCCN)NC(=O)[C@@H](CCCCN)NC(=O)[C@H](CCCCN)NC(=O)[C@H](NC(=O)[C@@H](NC(=O)[C@H](NC(=O)[C@H](CCCCN)NC(=O)[C@@H](CCCCN)NC(=O)[C@@H](N)CCCCN)C(C)C)C(C)C)C(C)C)C(C)C)C(=O)N[C@H](Cc1c[nH]c2ccccc12)C(=O)N[C@@H](CCCCN)C(N)=O [AS06] (H-K[dK]K[dV]V[dV]K[dK]K[dV]V[dW]K-NH2) | 50 (≈ 79.8 µg/mL) | 25 (≈ 39.9 µg/mL) | 25 (≈ 39.9 µg/mL) | ~50 (≈ 79.8 µg/mL)

SMILES | MIC E.coli clinical isolate [3] [µM] | MIC S. aureus clinical isolate [4] [µM] | MIC Gentamicin resistant MRSA, Medium [1] [µM] | MIC E. coli, Medium (Escherichia coli MG1655) [µM] | MIC M.smegmatis, Medium [2] [µM] | MIC values (summary in discussion) [5] [µM]
CC(C)[C@H](NC(=O)[C@H](NC(=O)[C@H](Cc1c[nH]c2ccccc12)NC(=O)[C@@H](Cc1c[nH]c2ccccc12)NC(=O)[C@H](CCCCN)NC(=O)[C@@H](CCCCN)NC(=O)[C@H](CCCCN)NC(=O)[C@H](NC(=O)[C@H](Cc1c[nH]c2ccccc12)NC(=O)[C@@H](Cc1c[nH]c2ccccc12)NC(=O)[C@H](CCCCN)NC(=O)[C@@H](CCCCN)NC(=O)[C@@H](N)CCCCN)C(C)C)C(C)C)C(N)=O [AS03] (H-K[dK]K[dW]W[dV]K[dK]K[dW]W[dV]V-NH2) | 25 (≈ 45.7 µg/mL) | 25 (≈ 45.7 µg/mL) | 3.13 (≈ 5.72 µg/mL) | 6.25 (≈ 11.4 µg/mL) | 6.25 (≈ 11.4 µg/mL) | 1 to 10
